Assay results published in patent US8338599B2, “Compounds having a potentiating effect on the activity of ethionamide and uses thereof” (priority 2006, dated 2012).
≈ marks a conversion by molar mass, not a printed value. Where “and” joins values, the source holds several entries; their conditions need not be identical. Identical values can stand only once.

Legend:
EthR protein [1] = molecular target: T1, EthR protein (Mycobacterium tuberculosis, UniProt P9WMC1); assay: In vitro measurement of the IC50 (EthR/DNA binding, BIAcore); parameters: species or system M. tuberculosis H37Rv
T1 sequence (P9WMC1 whole entry, looked up): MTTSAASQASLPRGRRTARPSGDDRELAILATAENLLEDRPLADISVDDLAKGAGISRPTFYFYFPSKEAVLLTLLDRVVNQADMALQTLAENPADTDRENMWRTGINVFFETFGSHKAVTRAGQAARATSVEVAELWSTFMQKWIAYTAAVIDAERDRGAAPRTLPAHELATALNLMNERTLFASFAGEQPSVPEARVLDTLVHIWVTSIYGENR
Description: b) In Vitro Measurement of the IC50 of the Compounds of the Invention.
The in vitro measurement of this datum was performed according to the same principle as for the measurement of inhibition of the EthR/DNA binding using the BIAcore technique.
The specific interaction between EthR and the specific 106-bp DNA fragment was measured on a range of six concentrations of the compounds of the invention, this range extending from 0.11 μM to 27 μM. The IC50 values are then extrapolated from the sigmoid curves obtained.

[2] = Measurement of the solubility (PBS pH 7.4 vs methanol, LC/MS); type: physicochemical; settings: pH 7.4, aqueous buffer, kinetic from dmso stock
Description: e) Measurement of the Solubility of the Compounds of the Invention
40 μl of a solution containing a compound of the invention at a concentration of 10 mM in DMSO were diluted in 1.960 ml of methanol, and another 40 μl were diluted in 1.960 ml of a PBS solution containing 675 mM of NaCl, 13.5 mM of KCl, 50 mM of Na2HPO4.2H2O and 10 mM of KH2PO4 at a pH of 7.4. The two solutions were stirred for 24 hours at room temperature, and then centrifuged for 5 minutes and filtered through 0.45 μm filters. 20 μl of each solution were then diluted in 118 μl of methanol and analyzed by liquid chromatography coupled to mass spectrometry (LC/MS). The solubility was determined by the ratio of the areas under the curve of the mass signal for the compound of the invention, according to the following equation: […]

EthR protein [3] = molecular target: T1, EthR protein; assay: Inhibition of interaction of EthR with its target DNA sequence (BIAcore); type: binding, M. tuberculosis H37Rv; settings: for inhibition at 3 µM: compound 3 μM, EthR 540 nM, 37° C.
Description: a) Measurement of the Activity of the Compounds on the Inhibition of Interaction of EthR with its Target DNA Sequence
The in vitro measurements of inhibition of binding of the EthR protein to its target DNA sequence were performed on a machine of BIAcore®2000 type (AB, Uppsala, Sweden).
The chips used are CM5 chips sold by the company GE Healthcare. Both the channels of a chip were activated with a solution containing 200 mM of EDC(N-ethyl-N′-(3-[…])carbodiimide) and 50 mM of NHS (N-hydroxysuccinimide). Next, streptavidin (500 ng/μl in a solution containing 10 mM of sodium acetate (pH 3.5) was injected over 12 minutes at a flow rate of 10 μl/minute. The 106-base-pair biotinylated DNA fragment corresponding to the ethA-R intergene region was deposited on one of the two channels of the chip at a rate of 200 ng/ml in order to obtain stable binding of streptavidin corresponding to 50 RU (resonance units). This DNA fragment was obtained by PCR using the chromosomal DNA of M. tuberculosis H37Rv as matrix and O-270: 5′-[…]-3′ (SEQ ID: No. 1) and O-271: 5′-biotin-[…]-3′ (SEQ ID: No. 2). The second channel was functionalized with a 113-base-pair biotinylated DNA fragment (fragment +14 to +127 of the bla gene of E. coli PCR-amplified using the following oligonucleotides: O-343: 5′-[…]-3′ (SEQ ID: No. 3) and O-344: 5′-biotin-[…]-3′ (SEQ ID: No. 4).
Measurement of the binding of the EthR protein to the immobilized DNA was performed at 37° C. in a reference buffer containing 10 mM of Tris-HCl (pH=7.5), 200 mM of NaCl, 0.1 mM of EDTA, 1 mM of DTT and 1% of DMSO at a flow rate of 20 μl/minute. The specific interaction (SI) of EthR with the 106-base-pair double-stranded DNA sequence, expressed in resonance units, corresponds to the difference in signal observed between the two channels.
For each inhibition measurement, the compounds of the invention are dissolved in the reference buffer at a concentration of 3 μM. The compounds of the invention are then incubated in the presence of the protein (540 nM) at 37° C. for 5 minutes, and each solution is then injected onto the two channels of the chip for 3 minutes at a flow rate of 20 μl/minute. The inhibition values are calculated at the end of the injection according to the following equation: […]
in which SIEthR corresponds to the value measured without ligand and SIEthR+ligand corresponds to the value measured in the presence of to ligand.

M. bovis BCG = type: cell-based, M. bovis BCG 1173P2; settings: from MIC of ETH alone (6 μM) and MIC of ETH with 25 μM compound
M. tuberculosis H37Rv [4] = assay: Ethionamide-potentiating effect, fluorimetric detection on Bactec MGIT 960; type: cell-based
M. tuberculosis H37Rv [5] = assay: Ethionamide-potentiating effect, RIA detection method on Bactec 460 in 12B medium; type: cell-based; settings: with 25 μM of compound
[6] = test system: Mycobacterium tuberculosis bacilli (strain H37RV); assay: Agar gel well test of ETH potentiation in Petri dishes; type: cell-based
[7] = strain 1%, no ETH, ligand 25 μM
[8] = strain 100%, ETH 0.025 μg/mL + ligand 25 μM
[9] = strain 100%, ETH 0.05 μg/mL + ligand 25 μM
[10] = strain 100%, ETH 0.1 μg/mL + ligand 25 μM
[11] = strain 100%, ETH 0.25 μg/mL + ligand 25 μM
[12] = strain 100%, no ETH, ligand 25 μM

SMILES: O=C(Cc1cccs1)N1CCC(c2nc(-c3cccs3)no2)CC1 [Compound 43, 2-thiophen-2-yl-1-[4-(3-thiophen-2-yl[1,2,4]oxadiazol-5-yl)piperid-1-yl]ethanone]
- IC50 (EthR protein [1]): 0.52 µM
- solubility at 24 h [2]: 26.9 µg/mL (≈ 74.8 µM)
- inhibition at 3 µM (EthR protein [3]): 93%
- Potentiation % (M. bovis BCG): 2500%
- bacterial growth-inhibiting properties of the compound alone (M. tuberculosis H37Rv [4]; 25 μM, no ETH (lines A5 and D3)): absence of bacterial growth-inhibiting properties
- MIC (M. tuberculosis H37Rv [4]; Mycobacterium tuberculosis, H37RV, compound 25 μM, read-out: MIC for ETH in the presence of compound): < 0.025 µg/mL and < 0.15 µM
- potentiation of the ethionamide activity (factor) (M. tuberculosis H37Rv [4]; compound 25 μM): ≥ 40 fold
- potentiation of the ethionamide activity (factor) (M. tuberculosis H37Rv [4]; compound 25 μM, listed as compound 43): about 40 fold
- State (M. tuberculosis H37Rv [4]; [7]): R
- fluorescence reading D + 0 (M. tuberculosis H37Rv [4]; [7]): 0
- fluorescence reading D + 1 (M. tuberculosis H37Rv [4]; [7]): 0
- fluorescence reading D + 5 (first column, c6) (M. tuberculosis H37Rv [4]; [7]): 0
- fluorescence reading D + 5 (second column, c7) (M. tuberculosis H37Rv [4]; [7]): 0
- fluorescence reading D + 6 (M. tuberculosis H37Rv [4]; [7]): 0
- fluorescence reading D + 7 (first column, c9) (M. tuberculosis H37Rv [4]; [7]): 168
- fluorescence reading D + 7 (second column, c10) (M. tuberculosis H37Rv [4]; [7]): 292
- fluorescence reading J + 8 (M. tuberculosis H37Rv [4]; [7]): 400
- State (M. tuberculosis H37Rv [4]; [8]): S
- fluorescence reading D + 0 (M. tuberculosis H37Rv [4]; [8]): 0
- fluorescence reading D + 1 (M. tuberculosis H37Rv [4]; [8]): 0
- fluorescence reading D + 5 (first column, c6) (M. tuberculosis H37Rv [4]; [8]): 0
- fluorescence reading D + 5 (second column, c7) (M. tuberculosis H37Rv [4]; [8]): 0
- fluorescence reading D + 6 (M. tuberculosis H37Rv [4]; [8]): 0
- fluorescence reading D + 7 (first column, c9) (M. tuberculosis H37Rv [4]; [8]): 0
- fluorescence reading D + 7 (second column, c10) (M. tuberculosis H37Rv [4]; [8]): 0
- fluorescence reading J + 8 (M. tuberculosis H37Rv [4]; [8]): 0
- State (M. tuberculosis H37Rv [4]; [9]): S
- fluorescence reading D + 0 (M. tuberculosis H37Rv [4]; [9]): 0
- fluorescence reading D + 1 (M. tuberculosis H37Rv [4]; [9]): 0
- fluorescence reading D + 5 (first column, c6) (M. tuberculosis H37Rv [4]; [9]): 0
- fluorescence reading D + 5 (second column, c7) (M. tuberculosis H37Rv [4]; [9]): 0
- fluorescence reading D + 6 (M. tuberculosis H37Rv [4]; [9]): 0
- fluorescence reading D + 7 (first column, c9) (M. tuberculosis H37Rv [4]; [9]): 0
- fluorescence reading D + 7 (second column, c10) (M. tuberculosis H37Rv [4]; [9]): 0
- fluorescence reading J + 8 (M. tuberculosis H37Rv [4]; [9]): 0
- State (M. tuberculosis H37Rv [4]; [10]): S
- fluorescence reading D + 0 (M. tuberculosis H37Rv [4]; [10]): 0
- fluorescence reading D + 1 (M. tuberculosis H37Rv [4]; [10]): 0
- fluorescence reading D + 5 (first column, c6) (M. tuberculosis H37Rv [4]; [10]): 0
- fluorescence reading D + 5 (second column, c7) (M. tuberculosis H37Rv [4]; [10]): 0
- fluorescence reading D + 6 (M. tuberculosis H37Rv [4]; [10]): 0
- fluorescence reading D + 7 (first column, c9) (M. tuberculosis H37Rv [4]; [10]): 0
- fluorescence reading D + 7 (second column, c10) (M. tuberculosis H37Rv [4]; [10]): 0
- fluorescence reading J + 8 (M. tuberculosis H37Rv [4]; [10]): 0
- State (M. tuberculosis H37Rv [4]; [11]): S
- fluorescence reading D + 0 (M. tuberculosis H37Rv [4]; [11]): 0
- fluorescence reading D + 1 (M. tuberculosis H37Rv [4]; [11]): 0
- fluorescence reading D + 5 (first column, c6) (M. tuberculosis H37Rv [4]; [11]): 0
- fluorescence reading D + 5 (second column, c7) (M. tuberculosis H37Rv [4]; [11]): 0
- fluorescence reading D + 6 (M. tuberculosis H37Rv [4]; [11]): 0
- fluorescence reading D + 7 (first column, c9) (M. tuberculosis H37Rv [4]; [11]): 0
- fluorescence reading D + 7 (second column, c10) (M. tuberculosis H37Rv [4]; [11]): 0
- fluorescence reading J + 8 (M. tuberculosis H37Rv [4]; [11]): 0
- State (M. tuberculosis H37Rv [4]; [12]): R
- fluorescence reading D + 0 (M. tuberculosis H37Rv [4]; [12]): 0
- fluorescence reading D + 1 (M. tuberculosis H37Rv [4]; [12]): 0
- fluorescence reading D + 5 (first column, c6) (M. tuberculosis H37Rv [4]; [12]): 400
- fluorescence reading D + 5 (second column, c7) (M. tuberculosis H37Rv [4]; [12]): 400
- fluorescence reading D + 6 (M. tuberculosis H37Rv [4]; [12]): 400
- fluorescence reading D + 7 (first column, c9) (M. tuberculosis H37Rv [4]; [12]): 400
- fluorescence reading D + 7 (second column, c10) (M. tuberculosis H37Rv [4]; [12]): 400
- fluorescence reading J + 8 (M. tuberculosis H37Rv [4]; [12]): 400

SMILES: [N-]=[N+]=NCC(=O)N1CCC(c2nc(-c3cccs3)no2)CC1 [Compound I-1, 2-azido-1-[4-(3-thiophen-2-yl[1,2,4]oxadiazol-5-yl)piperid-1-yl]ethanone]
- IC50 (EthR protein [1]): 1.54 µM
- inhibition at 3 µM (EthR protein [3]): 33%
- inhibition at 1 µM (EthR protein [3]; footnote c: DNA 20 RU, EthR 200 nM, compound 1 μM): 45%
- Potentiation % (M. bovis BCG): 2500%
- ETH concentration giving the same growth-inhibiting effect (M. tuberculosis H37Rv [5]): 0.1 μg/ml and 0.6 μM

SMILES: CC(C)(C)OC(=O)N1CCC(c2nc(-c3cccs3)no2)CC1 [Compound I-3, t-butyl ester of 4-(3-thiophen-2-yl-1,2,4-oxadiazol-5-yl)piperidine-1-carboxylic acid]
- inhibition of mycobacterial growth around the well ([6]; 20 nmol of compound alone (hole A2), three weeks 37° C.): does not show any bacterial toxicity
- inhibition of mycobacterial growth around the well ([6]; 2 μg or 4 μg of ETH + 20 nmol of compound (holes C1 and C2)): strongly inhibit the mycobacterial growth
- factor of reduction of the effective dose of ETH ([6]; combination with ETH, test behind the figure not stated): about 10 fold
